{
  "source": "ChEMBL document CHEMBL1201862",
  "about": "“PubChem BioAssay data set” (2004)",
  "key": {"[1]": {"biological_target": "T1, Coagulation factor XII (Homo sapiens, UniProt P00748)", "T1 sequence (P00748 whole entry)": "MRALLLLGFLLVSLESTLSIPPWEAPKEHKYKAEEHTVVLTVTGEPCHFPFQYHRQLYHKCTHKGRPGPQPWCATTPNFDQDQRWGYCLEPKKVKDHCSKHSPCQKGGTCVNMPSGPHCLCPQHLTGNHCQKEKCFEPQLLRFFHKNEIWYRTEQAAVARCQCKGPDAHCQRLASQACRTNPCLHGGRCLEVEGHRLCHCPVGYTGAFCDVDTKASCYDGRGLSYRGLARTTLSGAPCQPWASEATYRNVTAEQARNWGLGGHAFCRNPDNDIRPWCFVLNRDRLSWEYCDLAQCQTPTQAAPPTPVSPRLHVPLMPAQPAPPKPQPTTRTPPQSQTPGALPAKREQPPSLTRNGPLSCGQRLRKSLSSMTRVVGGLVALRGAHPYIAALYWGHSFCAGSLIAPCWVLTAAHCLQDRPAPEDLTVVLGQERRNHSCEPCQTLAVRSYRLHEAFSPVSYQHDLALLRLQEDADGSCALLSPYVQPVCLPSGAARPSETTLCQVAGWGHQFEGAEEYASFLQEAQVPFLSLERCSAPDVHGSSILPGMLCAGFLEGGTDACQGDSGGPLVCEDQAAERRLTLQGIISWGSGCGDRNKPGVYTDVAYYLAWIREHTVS", "type": "functional"}, "[2]": {"biological_target": "T2, Rac GTPase-activating protein 1 (Homo sapiens, UniProt Q9H0H5)", "T2 sequence (Q9H0H5 whole entry)": "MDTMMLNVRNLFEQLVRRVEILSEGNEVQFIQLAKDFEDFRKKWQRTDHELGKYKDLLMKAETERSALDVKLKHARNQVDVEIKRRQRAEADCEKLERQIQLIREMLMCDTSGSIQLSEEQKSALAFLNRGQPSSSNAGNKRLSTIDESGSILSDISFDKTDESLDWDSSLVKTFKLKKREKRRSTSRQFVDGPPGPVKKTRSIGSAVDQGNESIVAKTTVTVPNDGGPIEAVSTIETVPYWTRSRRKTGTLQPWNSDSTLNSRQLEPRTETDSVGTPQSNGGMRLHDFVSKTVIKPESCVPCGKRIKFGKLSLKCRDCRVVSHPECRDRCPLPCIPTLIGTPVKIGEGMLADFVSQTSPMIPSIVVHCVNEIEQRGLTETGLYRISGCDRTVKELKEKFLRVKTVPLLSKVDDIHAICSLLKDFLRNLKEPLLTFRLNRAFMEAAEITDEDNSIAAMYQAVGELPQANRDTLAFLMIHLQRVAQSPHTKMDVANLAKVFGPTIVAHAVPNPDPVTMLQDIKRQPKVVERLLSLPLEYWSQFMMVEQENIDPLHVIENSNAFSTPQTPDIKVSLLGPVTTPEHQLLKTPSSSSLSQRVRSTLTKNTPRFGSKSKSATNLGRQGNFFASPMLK", "assay": "MgcRacGAP GTPase-activating activity inhibitors, confirmation, biochemical, ADP Hunter fluorescence, primary and confirmatory (AID 624330)", "type": "functional"}, "[3]": {"biological_target": "Troponin, cardiac muscle (Homo sapiens, UniProt P19429+P45379+P63316)", "assay": "Fluorescence-based biochemical high throughput dose response assay for activators of the calcium sensitivity of cardiac Regulated Thin Filaments (RTF). [Related pubchem assays (depositor defined):AID493008, AID493018, AID504382, AID504383]", "type": "protein-complex assay"}, "[4]": {"biological_target": "DNA damage-inducible transcript 3 protein (Mus musculus, UniProt P35639)", "type": "functional, Cricetulus griseus"}, "[5]": {"biological_target": "X-box-binding protein 1 (Homo sapiens, UniProt P17861)", "type": "functional, Cricetulus griseus"}, "[6]": {"assay": "ZM109 Env clade C HIV-1 fusion inhibitors, dose response, HeLa effector, CEM target cells, luciferase, cherry-pick (AID 652058)", "type": "functional, cell-based"}, "[7]": {"assay": "inhibitors of clade B AD8 Env fusion, dose response, cell-based, cherry-pick (AID 652062);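 also: potency is for inhibitors of fusion seen as a drop in luminescence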", "type": "functional"}, "[8]": {"biological_target": "T3, Heat shock factor protein 1 (Mus musculus, UniProt P38532)", "T3 sequence (P38532 whole entry)": "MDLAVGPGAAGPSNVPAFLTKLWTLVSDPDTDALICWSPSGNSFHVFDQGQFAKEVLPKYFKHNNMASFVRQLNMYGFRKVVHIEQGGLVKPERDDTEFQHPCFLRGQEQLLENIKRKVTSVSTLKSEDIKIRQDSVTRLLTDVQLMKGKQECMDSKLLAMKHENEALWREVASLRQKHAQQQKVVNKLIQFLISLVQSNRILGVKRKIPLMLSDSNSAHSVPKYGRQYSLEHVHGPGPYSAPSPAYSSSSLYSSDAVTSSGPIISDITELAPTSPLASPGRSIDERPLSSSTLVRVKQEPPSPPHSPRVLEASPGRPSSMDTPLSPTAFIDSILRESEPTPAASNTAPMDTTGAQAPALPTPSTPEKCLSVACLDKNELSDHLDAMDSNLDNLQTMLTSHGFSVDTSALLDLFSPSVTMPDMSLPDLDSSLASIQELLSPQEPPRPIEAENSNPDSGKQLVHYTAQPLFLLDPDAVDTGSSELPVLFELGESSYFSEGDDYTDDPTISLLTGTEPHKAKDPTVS", "assay": "inhibition of MG132-induced HSE-luciferase signal, confirmation, cell-based, NIH3T3, luminescence, dose retest (AID 2382);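 also: NIH3T3 fibroblasts with HSF1-driven luciferase reporter stressed by proteasome inhibitor MG132; luminescence from HSF1-driven luciferase expression after 8 hours of MG132 stress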", "type": "functional"}, "[9]": {"assay": "inhibitors of HIV Env-driven cell fusion, dose response, cherry-pick (AID 652057)", "type": "functional, cell-based"}, "[10]": {"biological_target": "T4, Endoribonuclease toxin MazF (Escherichia coli K-12, UniProt P0AE70)", "T4 sequence (P0AE70 whole entry)": "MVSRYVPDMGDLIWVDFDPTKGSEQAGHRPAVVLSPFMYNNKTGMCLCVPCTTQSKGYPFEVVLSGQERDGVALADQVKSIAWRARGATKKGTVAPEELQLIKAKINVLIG", "assay": "fluorescent RNA oligo signal without MazF, dose response, counter-screen for MazEF activator project, biochemical, fluorescence, single-stranded RNase substrate (AID 588502)", "type": "functional"}, "[11]": {"biological_target": "T4, Endoribonuclease toxin MazF", "assay": "MazF toxin RNase activators, dose response, biochemical, fluorescence, single-stranded RNA substrate, uHTS hits (AID 588481)", "type": "functional"}, "[12]": {"assay": "off-target signal loss in HeLa-CEM21 co-culture – HeLa F-luc CTL cells, cherry-picked, counter-screen for HIV-1 Env fusion inhibitor project, dose response (AID 652040);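 also: potency for signal decrease marking cytotoxic or nonspecific inhibition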", "type": "functional, cell-based"}, "[13]": {"biological_target": "Cytochrome P450 2C9 (Homo sapiens, UniProt P11712)"}, "[14]": {"biological_target": "T5, Protein RecA (Mycobacterium tuberculosis, UniProt P9WHJ3)", "T5 sequence (P9WHJ3 whole entry)": "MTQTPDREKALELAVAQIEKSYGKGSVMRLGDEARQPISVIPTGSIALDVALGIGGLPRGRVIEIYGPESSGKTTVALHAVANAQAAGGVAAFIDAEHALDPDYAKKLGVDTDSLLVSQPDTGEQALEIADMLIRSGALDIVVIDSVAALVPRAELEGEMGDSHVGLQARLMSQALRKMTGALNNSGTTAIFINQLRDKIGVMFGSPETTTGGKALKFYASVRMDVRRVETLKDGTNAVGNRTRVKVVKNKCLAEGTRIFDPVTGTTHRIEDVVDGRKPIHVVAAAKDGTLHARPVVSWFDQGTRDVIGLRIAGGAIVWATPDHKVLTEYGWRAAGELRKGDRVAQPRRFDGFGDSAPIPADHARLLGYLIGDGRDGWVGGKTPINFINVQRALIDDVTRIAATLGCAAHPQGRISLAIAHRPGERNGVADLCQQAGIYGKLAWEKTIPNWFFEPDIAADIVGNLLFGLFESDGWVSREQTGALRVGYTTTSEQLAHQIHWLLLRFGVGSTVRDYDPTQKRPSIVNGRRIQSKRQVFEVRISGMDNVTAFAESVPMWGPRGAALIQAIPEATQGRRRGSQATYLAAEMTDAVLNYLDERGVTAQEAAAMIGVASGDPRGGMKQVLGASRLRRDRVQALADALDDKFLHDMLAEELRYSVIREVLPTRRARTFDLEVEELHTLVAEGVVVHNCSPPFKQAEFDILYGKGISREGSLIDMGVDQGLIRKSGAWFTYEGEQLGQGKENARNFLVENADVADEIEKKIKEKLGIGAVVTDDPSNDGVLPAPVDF", "assay": "Fluorescence Cell-Free Homogeneous Dose Retest to Identify Inhibitors of RecA-Intein Splicing Activity. [Related pubchem assays (depositor defined):AID2097, AID2223, AID489010, AID492950]", "type": "functional"}, "[15]": {"assay": "cells", "type": "functional"}, "[16]": {"biological_target": "T6, Replicative DNA helicase DnaB (Mycobacterium tuberculosis, UniProt P9WMR3)", "T6 sequence (P9WMR3 whole entry)": "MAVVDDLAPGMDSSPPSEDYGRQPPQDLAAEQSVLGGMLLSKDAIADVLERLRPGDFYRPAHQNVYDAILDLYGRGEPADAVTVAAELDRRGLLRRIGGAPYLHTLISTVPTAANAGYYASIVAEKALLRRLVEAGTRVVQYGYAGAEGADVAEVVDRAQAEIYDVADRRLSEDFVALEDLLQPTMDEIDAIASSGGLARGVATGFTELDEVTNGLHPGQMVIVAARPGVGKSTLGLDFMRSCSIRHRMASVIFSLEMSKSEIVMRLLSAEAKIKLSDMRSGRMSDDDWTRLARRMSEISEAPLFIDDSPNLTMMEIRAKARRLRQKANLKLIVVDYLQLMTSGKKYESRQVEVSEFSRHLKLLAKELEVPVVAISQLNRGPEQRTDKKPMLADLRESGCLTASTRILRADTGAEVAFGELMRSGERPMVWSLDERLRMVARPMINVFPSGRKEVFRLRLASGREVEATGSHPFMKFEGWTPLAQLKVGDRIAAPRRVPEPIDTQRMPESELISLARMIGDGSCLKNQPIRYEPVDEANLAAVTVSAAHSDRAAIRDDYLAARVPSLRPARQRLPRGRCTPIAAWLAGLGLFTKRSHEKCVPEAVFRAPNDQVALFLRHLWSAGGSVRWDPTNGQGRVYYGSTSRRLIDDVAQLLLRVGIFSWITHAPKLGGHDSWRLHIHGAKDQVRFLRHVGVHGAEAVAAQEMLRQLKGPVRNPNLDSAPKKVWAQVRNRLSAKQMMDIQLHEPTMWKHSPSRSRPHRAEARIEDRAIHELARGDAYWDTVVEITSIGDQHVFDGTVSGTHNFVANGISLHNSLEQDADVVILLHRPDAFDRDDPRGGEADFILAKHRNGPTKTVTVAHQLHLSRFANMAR", "assay": "DnaB intein splicing inhibitors, dose response, biochemical, cell-free fluorescence (AID 449749)", "type": "functional"}, "[17]": {"tested_on": "T-cell", "assay": "inhibitors of CD8+ T cell–vesicle binding, dose response, mouse 2C CD8+ T cells, flow cytometry (AID 485284)", "type": "functional"}},
  "note": "Calls of active or inactive are those of the source.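 For Absolute IC50 (XBP1) in this document: confirmatory dose-response counter-screen serving a CHOP assay.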",
  "data": [
    {"smiles": "COC(=O)c1ccc(NC(=S)Nc2ccc(O)cc2)cc1", "values": [
      {"measurement": "IC50", "setting": "[1]", "result": "> 50 µM (inactive)"},
      {"measurement": "IC50", "setting": "[2]", "result": "43.1 µM (active)"}
    ]},
    {"smiles": "O=C(CNCc1cccs1)Nc1ccc(S(=O)(=O)N2CCCCC2)cc1", "values": [
      {"measurement": "EC50", "setting": "[3]", "result": "> 71.5 µM (inactive)"}
    ]},
    {"smiles": "CC1=C(C(=O)Nc2ccc(C)cc2C)C(c2cccc(Cl)c2)n2nc(C(=O)OC(C)C)nc2N1", "note": "(stereo unspecified)", "values": [
      {"measurement": "Absolute IC50 (CHOP)", "setting": "[4]", "result": 10, "unit": "µM"},
      {"measurement": "Absolute IC50 (XBP1)", "setting": "[5]", "result": 10, "unit": "µM"}
    ]},
    {"smiles": "Cc1cccc2cc3c(N)c(C#N)sc3nc12", "values": [
      {"measurement": "AC50", "setting": "[6]", "result": "6.95 µM (active)"},
      {"measurement": "Absolute IC50 (CHOP)", "setting": "[4]", "result": 10, "unit": "µM"},
      {"measurement": "AC50", "setting": "[7]", "result": "5.1 µM (active)"},
      {"measurement": "EC50", "setting": "[8]", "result": "> 195 µM (not active)"},
      {"measurement": "Absolute IC50 (XBP1)", "setting": "[5]", "result": 10, "unit": "µM"},
      {"measurement": "AC50", "setting": "[9]", "result": "2.64 µM (active)"},
      {"measurement": "EC50", "setting": "[10]", "result": "43.1 µM (inactive)"},
      {"measurement": "EC50", "setting": "[11]", "result": "> 99 µM (inactive)"},
      {"measurement": "AC50", "setting": "[12]", "result": "1.94 µM (active)"}
    ]},
    {"smiles": "Cc1ccc(OCc2nnc(SCC(=O)O)n2N)cc1", "values": [
      {"measurement": "IC50", "setting": "[1]", "result": "> 50 µM (inactive)"}
    ]},
    {"smiles": "CCN1C(=O)/C(=C/C=C2/SCCN2C)SC1=S", "values": [
      {"measurement": "AC50", "setting": "[13]", "result": "4.47 µM (inconclusive)"},
      {"measurement": "EC50", "setting": "[3]", "result": "1.54 µM (active)"}
    ]},
    {"smiles": "COc1ccc(NC(=O)Nc2ccc(O)c3ccccc23)cc1", "values": [
      {"measurement": "EC50", "setting": "[14]", "result": "0.722 µM (active)"},
      {"measurement": "IC50", "setting": "[15]", "result": "> 50 µM (active)"},
      {"measurement": "AC50", "setting": "[16]", "result": "18 µM (active)"},
      {"measurement": "EC50", "setting": "[17]", "result": "12.5 µM (active)"}
    ]}
  ]
}
